Columns and labels:
[1] = molecular target: T1, glucocorticoid receptor (GR), recombinant full-length receptor protein (Homo sapiens, UniProt P04150); test: Glucocorticoid receptor binding assay (fluorescence polarization kit); settings: 4 nM receptor, 2.5 nM Fluormone GS1 tracer, 2h room temperature, read-out: GR binding ABS IC50
T1 construct: 4 nM recombinant, full-length receptor protein was incubated with increasing concentrations of GR ligand; purchased Life Technologies A-15897
T1 sequence (P04150 1-777): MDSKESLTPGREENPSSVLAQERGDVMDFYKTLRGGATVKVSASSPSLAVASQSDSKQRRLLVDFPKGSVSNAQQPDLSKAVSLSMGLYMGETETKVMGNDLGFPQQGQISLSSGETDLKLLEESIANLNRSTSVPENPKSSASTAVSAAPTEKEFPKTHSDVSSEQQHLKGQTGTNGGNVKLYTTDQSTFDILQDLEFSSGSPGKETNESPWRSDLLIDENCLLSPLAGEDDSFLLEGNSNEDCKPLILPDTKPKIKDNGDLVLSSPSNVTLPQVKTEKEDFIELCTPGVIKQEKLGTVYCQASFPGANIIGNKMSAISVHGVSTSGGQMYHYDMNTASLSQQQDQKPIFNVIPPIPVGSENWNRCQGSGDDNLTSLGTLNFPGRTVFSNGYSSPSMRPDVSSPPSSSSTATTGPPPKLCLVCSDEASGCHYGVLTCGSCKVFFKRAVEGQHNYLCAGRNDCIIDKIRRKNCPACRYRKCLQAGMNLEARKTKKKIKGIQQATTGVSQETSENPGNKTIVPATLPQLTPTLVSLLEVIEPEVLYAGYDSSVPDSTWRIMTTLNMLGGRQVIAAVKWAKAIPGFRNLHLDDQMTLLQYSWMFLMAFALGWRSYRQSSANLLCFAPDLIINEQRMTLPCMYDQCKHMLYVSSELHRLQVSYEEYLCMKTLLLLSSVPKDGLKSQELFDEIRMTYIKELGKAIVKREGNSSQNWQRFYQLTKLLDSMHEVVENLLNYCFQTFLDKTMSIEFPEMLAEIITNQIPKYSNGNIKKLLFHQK
Protocol: Test compounds were diluted in DMSO over seven orders of magnitude, further diluted in assay buffer and distributed into 384-well plates. The sensitivity limit of this assay was 2-4 nM.
Data were processed by sigmoidal curve fitting.
Absolute (Abs) IC50 and Emax were determined from the curve fits.

[2] = test system: TNF alpha release from human PBMCs; test: Inhibition of TNF alpha release from human PBMCs; type: cell-based; settings: LPS 1 μg/ml, 18 hours, AlphaLISA
In short: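 Fresh or thawed PBMCs in serum-free medium with 0.5% HSA, stimulated with 1 μg/ml LPS plus titrated compound for 18 h at 37° C. TNF-a in supernatant by AlphaLISA; window set with a reference PDE4 inhibitor at 100×IC50. EC50 and Emax from sigmoidal fits.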

[3] = Human liver microsomes (HLM) assay; type: in vitro ADME; settings: hepatic extraction ratio; 0.5 μM compound, 0.5 mg/mL microsomes, NADPH, 37° C.
Protocol: Incubations of test compounds in DMSO, diluted with phosphate buffer, pH 7.4, at 0.5 μM were carried out with human liver microsomes (0.5 mg/mL). The percentage of organic solvent in the incubations was 1%. The human liver microsomal suspension in phosphate buffer was mixed with NADPH (1 mM) and preheated to 37° C. before test compound was added. Aliquots were taken at 0, 5, 10, 20 and 30 minutes, and reactions were terminated by addition of methanol containing analytical internal standard (IS).
The results were expressed as apparent clearance (Clapp) (mL/min/kg) and hepatic extraction ratio (Eh) (%) calculated from the rate constant (k) (min^−1) of test compound depletion.

Row | Structure (SMILES) | IC50 [1] [nM] | EC50 ([2]; PBMC) [nM] | HLM assay Eh (%) [3] | EC50 [2] [nM]
1 | C[C@H](NC(=O)[C@H]1CCCO1)[C@H](Oc1ccc(C(=O)N[C@H]2CCCN(C(=O)[C@H]3COC(=O)C3)C2)nc1)c1ccc(C2CC2)cc1 [Compound 22, 5-[(1R,2S)-1-(4-cyclopropylphenyl)-2-[[(2R)-tetrahydrofuran-2-carbonyl]amino]propoxy]-N-[(3S)-1-[(3R)-5-oxotetrahydrofuran-3-carbonyl]-3-piperidyl]pyridine-2-carboxamide] | < 100 | < 100 | * (extraction ratio (Eh)>90%) | 
2 | Cc1ncsc1C(=O)N[C@@H](C)[C@H](Oc1ccc(C(=O)O[C@H]2CCCN(C(=O)[C@H]3COC(=O)C3)C2)cc1)c1ccc(C2CC2)cc1 [Compound 30, [(3S)-1-[(3R)-5-oxotetrahydrofuran-3-carbonyl]-3-piperidyl] 4-[(1R,2S)-1-(4-cyclopropylphenyl)-2-[(4-methylthiazole-5-carbonyl)amino]propoxy]benzoate] | < 100 | 100 to 300 | * (extraction ratio (Eh)>90%) | 
3 | C[C@H](NC(=O)C(C)(F)F)[C@H](Oc1ccc(C(=O)O[C@H]2CCCN(C(=O)[C@H]3COC(=O)C3)C2)cc1)c1ccc(C2CC2)cc1 [Compound 58, [(3S)-1-[(3R)-5-oxotetrahydrofuran-3-carbonyl]-3-piperidyl] 4-[(1R,2S)-1-(4-cyclopropylphenyl)-2-(2,2-difluoropropanoylamino)propoxy]benzoate] | < 100 | < 100 | * (extraction ratio (Eh)>90%) | 
4 | Cc1nonc1C(=O)N[C@@H](C)[C@H](Oc1ccc(C(=O)O[C@H]2CCCN(C(=O)[C@H]3COC(=O)C3)C2)cc1)c1ccc(C2CC2)cc1 [Compound 28, [(3S)-1-[(3R)-5-oxotetrahydrofuran-3-carbonyl]-3-piperidyl] 4-[(1R,2S)-1-(4-cyclopropylphenyl)-2-[(4-methyl-1,2,5-oxadiazole-3-carbonyl)amino]propoxy]benzoate] | < 100 | < 100 | * (extraction ratio (Eh)>90%) | 
5 | C[C@H](NC(=O)c1ccn(C)n1)[C@H](Oc1ccc(C(=O)O[C@H]2CCCN(C(=O)[C@H]3COC(=O)C3)C2)cc1)c1ccc(C2CC2)cc1 [Compound 57, [(3S)-1-[(3R)-5-oxotetrahydrofuran-3-carbonyl]-3-piperidyl] 4-[(1R,2S)-1-(4-cyclopropylphenyl)-2-[(1-methylpyrazole-3-carbonyl)amino]propoxy]benzoate] | < 100 | < 100 | * (extraction ratio (Eh)>90%) | 
6 | C[C@H](NC(=O)c1ccsn1)[C@H](Oc1ccc(C(=O)N[C@H]2CCCN(C(=O)[C@H]3COC(=O)C3)C2)nc1)c1ccc(C2CC2)cc1 [Compound 4, N-[(1S,2R)-2-(4-cyclopropylphenyl)-1-methyl-2-[[6-[[(3S)-1-[(3R)-5-oxotetrahydrofuran-3-carbonyl]-3-piperidyl]carbamoyl]-3-pyridyl]oxy]ethyl]isothiazole-3-carboxamide] | < 100 | < 100 | * (extraction ratio (Eh)>90%) | 
7 | C[C@H](NC(=O)c1cocn1)[C@H](Oc1ccc(C(=O)N[C@H]2CCCN(C(=O)[C@H]3COC(=O)C3)C2)nc1)c1ccc(C2CC2)cc1 [Compound 19, N-[(1S,2R)-2-(4-cyclopropylphenyl)-1-methyl-2-[[6-[[(3S)-1-[(3R)-5-oxotetrahydrofuran-3-carbonyl]-3-piperidyl]carbamoyl]-3-pyridyl]oxy]ethyl]oxazole-4-carboxamide] | < 100 | < 100 | * (extraction ratio (Eh)>90%) | 
8 | C[C@H](NC(=O)c1csnn1)[C@H](Oc1ccc(C(=O)O[C@H]2CCCN(C(=O)[C@H]3COC(=O)C3)C2)cc1)c1ccc(C2CC2)cc1 [Compound 52, [(3S)-1-[(3R)-5-oxotetrahydrofuran-3-carbonyl]-3-piperidyl] 4-[(1R,2S)-1-(4-cyclopropylphenyl)-2-(thiadiazole-4-carbonylamino)propoxy]benzoate] | < 100 |  | * (extraction ratio (Eh)>90%) | < 100
9 | C[C@H](NC(=O)c1cn(C)cn1)[C@H](Oc1ccc(C(=O)O[C@H]2CCCN(C(=O)[C@H]3COC(=O)C3)C2)cc1)c1ccc(C2CC2)cc1 [Compound 43, [(3S)-1-[(3R)-5-oxotetrahydrofuran-3-carbonyl]-3-piperidyl] 4-[(1R,2S)-1-(4-cyclopropylphenyl)-2-[(1-methylimidazole-4-carbonyl)amino]propoxy]benzoate] | < 100 | < 100 | * (extraction ratio (Eh)>90%) | 
10 | C[C@H](NC(=O)c1cnco1)[C@H](Oc1ccc(C(=O)N[C@H]2CCCN(C(=O)[C@H]3COC(=O)C3)C2)nc1)c1ccc(C2CC2)cc1 [Compound 9, N-[(1S,2R)-2-(4-cyclopropylphenyl)-1-methyl-2-[[6-[[(3S)-1-[(3R)-5-oxotetrahydrofuran-3-carbonyl]-3-piperidyl]carbamoyl]-3-pyridyl]oxy]ethyl]oxazole-5-carboxamide] | 100 to 300 | < 100 | * (extraction ratio (Eh)>90%) | 
11 | Cc1nocc1C(=O)N[C@@H](C)[C@H](Oc1ccc(C(=O)O[C@H]2CCCN(C(=O)[C@H]3COC(=O)C3)C2)cc1)c1ccc(C2CC2)cc1 [Compound 45, [(3S)-1-[(3R)-5-oxotetrahydrofuran-3-carbonyl]-3-piperidyl] 4-[(1R,2S)-1-(4-cyclopropylphenyl)-2-[(3-methylisoxazole-4-carbonyl)amino]propoxy]benzoate] | < 100 | < 100 | * (extraction ratio (Eh)>90%) | 
12 | C[C@H](NC(=O)[C@@H](C)O)[C@H](Oc1ccc(C(=O)N[C@H]2CCCN(C(=O)[C@H]3COC(=O)C3)C2)nc1)c1ccc(C2CC2)cc1 [Compound 11, 5-[(1R,2S)-1-(4-cyclopropylphenyl)-2-[[(2R)-2-hydroxypropanoyl]amino]propoxy]-N-[(3S)-1-[(3R)-5-oxotetrahydrofuran-3-carbonyl]-3-piperidyl]pyridine-2-carboxamide] | > 300 | < 100 | * (extraction ratio (Eh)>90%) | 
13 | C[C@H](NC(=O)c1ccnn1C)[C@H](Oc1ccc(C(=O)O[C@H]2CCCN(C(=O)[C@H]3COC(=O)C3)C2)cc1)c1ccc(C2CC2)cc1 [Compound 35, [(3S)-1-[(3R)-5-oxotetrahydrofuran-3-carbonyl]-3-piperidyl] 4-[(1R,2S)-1-(4-cyclopropylphenyl)-2-[(2-methylpyrazole-3-carbonyl)amino]propoxy]benzoate] | < 100 | 100 to 300 | * (extraction ratio (Eh)>90%) | 
14 | C[C@H](NC(=O)c1ccsn1)[C@H](Oc1ccc(C(=O)O[C@H]2CCCN(C(=O)[C@H]3COC(=O)C3)C2)cc1)c1ccc(C2CC2)cc1 [Compound 44, [(3S)-1-[(3R)-5-oxotetrahydrofuran-3-carbonyl]-3-piperidyl] 4-[(1R,2S)-1-(4-cyclopropylphenyl)-2-(isothiazole-3-carbonylamino)propoxy]benzoate] | < 100 | < 100 | * (extraction ratio (Eh)>90%) | 
15 | Cc1ncoc1C(=O)N[C@@H](C)[C@H](Oc1ccc(C(=O)O[C@H]2CCCN(C(=O)[C@H]3COC(=O)C3)C2)cc1)c1ccc(C2CC2)cc1 [Compound 33, [(3S)-1-[(3R)-5-oxotetrahydrofuran-3-carbonyl]-3-piperidyl] 4-[(1R,2S)-1-(4-cyclopropylphenyl)-2-[(4-methyloxazole-5-carbonyl)amino]propoxy]benzoate] | < 100 | 100 to 300 | * (extraction ratio (Eh)>90%) | 

Source: US10494363B2, “Non-steroidal glucocorticoid receptor modulators for local drug delivery” (LEO PHARMA A/S, priority 2015, dated 2019)
